In US10780090B2, “Heteroaryl compounds useful as inhibitors of SUMO activating enzyme” (Millennium Pharmaceuticals, Inc., priority 2014, dated 2020):

Target: recombinant human SAE enzyme (Homo sapiens (Human), UniProt Q9UBT2)
Assay: SAE HTRF enzyme assay
Type: biochemical
Details: for Percent Inhibition: SAE inhibition at compound concentration 0.111 μM; for IC50: SAE inhibition, class symbols, legend in nM
Procedure, shortened: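 This HTRF format monitors Sumo-Flag–Ubc9-GST thioester formation catalysed by 0.11 nM human SAE with 0.5 μM ATP over 105 min at 24° C. Inhibition is expressed at a single concentration or as IC50.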

Chain of recombinant human SAE enzyme (Q9UBT2 whole entry): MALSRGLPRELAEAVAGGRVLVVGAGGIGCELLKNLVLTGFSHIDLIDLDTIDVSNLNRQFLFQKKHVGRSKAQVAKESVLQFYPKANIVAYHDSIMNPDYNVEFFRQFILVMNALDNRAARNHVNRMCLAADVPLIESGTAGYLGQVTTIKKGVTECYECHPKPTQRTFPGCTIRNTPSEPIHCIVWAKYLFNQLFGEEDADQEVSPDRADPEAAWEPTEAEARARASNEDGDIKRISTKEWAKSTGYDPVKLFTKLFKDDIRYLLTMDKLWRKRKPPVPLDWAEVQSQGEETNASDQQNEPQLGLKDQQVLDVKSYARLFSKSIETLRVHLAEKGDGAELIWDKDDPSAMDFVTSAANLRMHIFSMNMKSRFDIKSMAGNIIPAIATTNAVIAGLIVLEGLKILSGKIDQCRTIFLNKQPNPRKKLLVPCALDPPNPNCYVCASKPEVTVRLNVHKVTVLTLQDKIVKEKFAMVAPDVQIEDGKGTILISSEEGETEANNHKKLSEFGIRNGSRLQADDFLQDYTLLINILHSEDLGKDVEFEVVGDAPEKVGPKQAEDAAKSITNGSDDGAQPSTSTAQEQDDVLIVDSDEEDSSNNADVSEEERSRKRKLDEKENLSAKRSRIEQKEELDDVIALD
Chain of recombinant human SAE enzyme (Q9UBE0 whole entry partner): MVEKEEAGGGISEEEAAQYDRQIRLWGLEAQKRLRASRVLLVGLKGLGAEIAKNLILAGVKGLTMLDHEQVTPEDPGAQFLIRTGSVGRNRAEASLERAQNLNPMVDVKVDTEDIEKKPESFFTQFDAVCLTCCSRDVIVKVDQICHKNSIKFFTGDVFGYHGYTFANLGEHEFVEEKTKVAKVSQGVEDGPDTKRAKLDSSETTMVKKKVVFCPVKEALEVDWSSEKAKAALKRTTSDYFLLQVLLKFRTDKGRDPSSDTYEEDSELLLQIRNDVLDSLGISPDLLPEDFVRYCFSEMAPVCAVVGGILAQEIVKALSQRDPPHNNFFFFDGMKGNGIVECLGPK

SMILES | Percent Inhibition [%] | IC50 [nM]
NS(=O)(=O)OC[C@H]1C[C@@H](Nc2ncncc2C(=O)c2cc([C@@H]3CCc4ccc(Cl)cc43)cs2)C[C@@H]1O (single isomer, unassigned) [I-349a, [(1R,2S,4R)-4-{[5-({4-[(1R)-6-chloro-2,3-dihydro-1H-inden-1-yl]-2-thienyl}carbonyl)pyrimidin-4-yl]amino}-2-hydroxycyclopentyl]methyl sulfamate or [(1R,2S,4R)-4-{[5-({4-[(1S)-6-chloro-2,3-dihydro-1H-inden-1-yl]-2-thienyl}carbonyl)pyrimidin-4-yl]amino}-2-hydroxycyclopentyl]methyl sulfamate] | 42 | 100 to 1000
NS(=O)(=O)OC[C@H]1C[C@@H](Nc2ncncc2C(=O)c2cc([C@@H]3CCc4ccc(Cl)cc43)cs2)C[C@@H]1O (single isomer, unassigned) [I-349b, [(1R,2S,4R)-4-{[5-({4-[(1R)-6-chloro-2,3-dihydro-1H-inden-1-yl]-2-thienyl}carbonyl)pyrimidin-4-yl]amino}-2-hydroxycyclopentyl]methyl sulfamate or [(1R,2S,4R)-4-{[5-({4-[(1S)-6-chloro-2,3-dihydro-1H-inden-1-yl]-2-thienyl}carbonyl)pyrimidin-4-yl]amino}-2-hydroxycyclopentyl]methyl sulfamate] | 58 | 10 to 100
Cc1sc(C(=O)c2cncnc2N[C@@H]2C[C@H](COS(N)(=O)=O)[C@@H](O)C2)nc1[C@H](O)c1cccc(Cl)c1 (single isomer, unassigned) [I-355a, [(1R,2S,4R)-4-{[5-({4-[(R)-(3-chlorophenyl)(hydroxy)methyl]-5-methyl-1,3-thiazol-2-yl}carbonyl)pyrimidin-4-yl]amino}-2-hydroxycyclopentyl]methyl sulfamate or [(1R,2S,4R)-4-{[5-({4-[(S)-(3-chlorophenyl)(hydroxy)methyl]-5-methyl-1,3-thiazol-2-yl}carbonyl)pyrimidin-4-yl]amino}-2-hydroxycyclopentyl]methyl sulfamate] | 98 | < 10
Cc1sc(C(=O)c2cncnc2N[C@@H]2C[C@H](COS(N)(=O)=O)[C@@H](O)C2)nc1[C@H](O)c1cccc(Cl)c1 (single isomer, unassigned) [I-355b, [(1R,2S,4R)-4-{[5-({4-[(R)-(3-chlorophenyl)(hydroxy)methyl]-5-methyl-1,3-thiazol-2-yl}carbonyl)pyrimidin-4-yl]amino}-2-hydroxycyclopentyl]methyl sulfamate or [(1R,2S,4R)-4-{[5-({4-[(S)-(3-chlorophenyl)(hydroxy)methyl]-5-methyl-1,3-thiazol-2-yl}carbonyl)pyrimidin-4-yl]amino}-2-hydroxycyclopentyl]methyl sulfamate] | 71 | 10 to 100
Cc1nc2n(c1C)CCO[C@@H]2c1cc(C(=O)c2cncnc2N[C@@H]2C[C@H](COS(N)(=O)=O)[C@@H](O)C2)sc1C (single isomer, unassigned) [I-356a, [(1R,2S,4R)-4-{[5-({4-[(8R)-2,3-dimethyl-5,6-dihydro-8H-imidazo[2,1-c][1,4]oxazin-8-yl]-5-methyl-2-thienyl}carbonyl)pyrimidin-4-yl]amino}-2-hydroxycyclopentyl]methyl sulfamate or [(1R,2S,4R)-4-{[5-({4-[(8S)-2,3-dimethyl-5,6-dihydro-8H-imidazo[2,1-c][1,4]oxazin-8-yl]-5-methyl-2-thienyl}carbonyl)pyrimidin-4-yl]amino}-2-hydroxycyclopentyl]methyl sulfamate] | 52 | 10 to 100
